# Tested on: E. coli
# Assay: Reductions of E. coli organisms
compound,measurement,setting,value
"O=c1n(Cl)c(=O)n(Cl)c(=O)n1Cl [Uncoated ACL, trichloroisocyanuric acid]",E. coli remaining after 5 minutes,after 5 minutes,0
same,E. coli remaining after: ½ hour,after ½ hour,Slightly
